“Also recorded” adds a separate entry of the source.
Legend:
apo e−/− mice = assay: Serum total cholesterol in apolipoprotein E deficient mice; type: in vivo; settings: for Mean serum total cholesterol: apo e−/− mice, 8 mg/kg/day, one week
Procedure: Three- to four-week old apolipoprotein E deficient (apo E^−/−) mice were the progeny of breeding pairs of apo E knockout (apo EKO) mice obtained from Jackson Labs. (Bar Harbor, Me., USA). Mice were fed either regular rodent chow (5% fat and 0% cholesterol) (Teklad-LM 485, Harlan Teklad, Madison, Wis., USA), the Paigen's cocoa butter diet, or the Western diet (21.22% fat and 0.2% cholesterol) (Harlan Teklad, Madison, Wis., USA) for two weeks prior to treatment.
Animals were treated with test compounds by intraperitoneal injection daily for 7 days. A range of doses was administered. Control animals received vehicle alone. The effect of quinazoline derivatives on total cholesterol, LDL, HDL, liver enzymes, and glucose was analyzed. The mice tissues were also examined histologically.
Serum total cholesterol was measured enzymatically using the cholesterol kit from Sigma Chemical Co. (St. Louis, Mo., USA). For liver tissue lipid measurements, lipids were extracted from homogenized hepatic tissues using the method of Bligh and Dyer (Bligh, et al., Can. J. Biochem. Phys. 1959, 37:911-917). One gram of liver tissue was homogenized in 1 ml of distilled water and extracted with 4 ml of chloroform/methanol (1:1, v/v). The chloroform phase containing the lipids was evaporated under a stream of nitrogen, the lipids dissolved in 100 μL of isopropanol, and subjected to cholesterol determination as described above. Triglyceride (TG) contents were determined using the TG kit from Sigma Chemical Co.
On regular rodent chow, the serum total cholesterol level of apo e^−/− mice was 836±57 mg/dL (n=47). After one week therapy with 8 mg/kg/day WHI-P164 (n=12), the mean serum total cholesterol level was reduced to 551±29 mg/dL (p=0.02).
When challenged with a cholesterol-rich diet, these animals developed frank hypercholesterolemia due to delayed clearance of intestinal chylomicrons which shuttle the dietary cholesterol from the intestine to the liver. In the present study, all of the 46 ApoE-deficient mice that were fed Western diet (14) became severely hypercholesterolemic with a mean serum total cholesterol level of 1491±59 mg/dL. One week WHI-P164 therapy reduced the mean serum total cholesterol level of hypercholesterolemic apo e^−/− mice to 1194±84 mg/dL (p=O.006) at a dose level of 8 mg/kg/day (n=19) and to 876±57 mg/dL (p<0.0001) at a dose level of 40 mg/kg/day (n=17) (Table 3).

C57B⅙ mice [1] = assay: Blood chemistry, weight and histopathology of treated C57B⅙ mice; type: in vivo
Procedure: […] A range of doses was administered. Control animals received vehicle alone. The effect of quinazoline derivatives on total cholesterol, LDL, HDL, liver enzymes, and glucose was analyzed. The mice tissues were also examined histologically.
Serum levels alanine aminotransferase (ALT), alkaline phosphatase (ALP), lactate dehydrogenase (LDH), blood urea nitrogen (BUN), creatinine, creatinine phosphokinase (CPK), and glucose were determined by using a Synchron CX5 Clinical System (Beckman Instruments, Inc., Fullerton, Calif.) following manufacturer's instructions. For the glucose tolerance test, blood glucose levels were determined using the portable One Touch Profile glucose meter (Lifescan, Milpitas, Calif., USA).
At the end of the experiment, the animals were sacrificed and the harvested tissues were fixed in 10% phosphate buffered formalin overnight, embedded, sectioned, and stained by hematoxylin and eosin (H&E). The stained sections were examined for pathological changes. For Oil Red O staining, the liver was excised and snap frozen in liquid nitrogen. Five micrometer thick sections were obtained using the LeicaCM1800 cryostat (Heerbrugg, Switzerland), stained in 0.5% Oil Red O in propylene glycol for 1 hour, destained in 85% propylene glycol for 1 minute, rinsed twice in distilled water, counterstained in Mayer's hematoxylin for a few seconds, rinsed twice in distilled water, and mounted in Crystalmount (Biomedia Corp., Foster City, Calif.). The Oil Red O stainable material at 400 X magnification was quantitated using the ImagePro plus program (Media Cybernetics, Silver Spring, Md., USA) in conjunction with a 3CCD camera (DAGE-MTI Inc., Michigan City, USA).

C57B⅙ mice [2] = assay: Postprandial triglyceride accumulation after 36 hour fast; type: in vivo; settings: 40 mg/kg/day for 7 days
Procedure: FIG. 5 is a graph showing inhibition of postprandial triglyceride accumulation by WHI-P164 treatment. C57B⅙ mice were treated with WHI-P164 at 40 mg/kg/day for 7 days, and fasted 36 hours with continuing treatment. […].
(§1) C57B⅙ and apoE-deficient mice were treated with intraperitoneal injections of 50 μl vehicle or 40 mg/kg WHI-P164 in 50 μl vehicle for 7 consecutive days, followed by a 36 hour fast to shut down intestinal chylomicron synthesis. […] Blood samples were taken at 0 and 4 hours after Triton WR1339 injection and plasma TG levels were measured enzymatically using a commercially available enzymatic kit (Sigma Chemical Co.). Alternatively, food was returned to the mice after a 36 hour fast and blood samples were collected at 0, 1, 3, 6, and 9 hours after returning the food. Accumulation of chylomicron-TG was determined as accumulation of plasma TG.
Inhibition reached statistical significance at 6 hours in vehicle treated mice having a plasma TG level of 272±25 mg/dL, n=5, as compared to a plasma TG level of 155±32 mg/dL, n=5, p=0.004 in WHI-P164 treated mice.

C57B⅙ mice [3] = assay: In vivo hepatic VLDL-TG production using Triton WR1339 in C57B⅙ mice
Procedure: as §1
To determine if WHI-P164 prevent hepatic TG accumulation by relieving 9 block in VLDL-TG secretion or by inhibiting upstream TG synthesis, in vivo hepatic VLDL-TG synthesis was analyzed. Synthesis was determined by following the accumulation of VLDL-TG after shutting down VLDL catabolism with Triton WR1339 injection and intestinal chylomicron synthesis with a 36 hours fast.
C57B⅙ and apoE-deficient mice were treated with intra peritoneal injections of vehicle or 40 mg/kg WHI-P164 (in 50 μl vehicle) for 7 consecutive days, followed by a 36 hour fast to shut down intestinal chylomicron synthesis. […] Blood samples (50 μl) were taken at 0 and 4 hours after Triton WR1339 injection and plasma TG was measured enzymatically using a commercially available enzymatic kit (Sigma Chemical Co.), as previously reported (Kuipers, supra).

[4] = C57B⅙ mice, indicated dose levels

Q: What does the source list for `COc1cc2ncnc(C(=O)c3cccc(Br)c3)c2cc1OC` [WHI-P164, 4-(3′-bromobenzoyl)-6,7-dimethoxyquinazoline]?
A: Serum total cholesterol (apo e−/− mice; apo e−/− (C57B1/6) mice, Western diet two weeks, then drug 1 week at 40 mg/kg/day, 40 mg/kg/day): 876 ± 57 mg/dL; Mean serum total cholesterol (apo e−/− mice; Western diet): 1194 ± 84 mg/dL; Mean serum total cholesterol (apo e−/− mice; regular rodent chow): 551 ± 29 mg/dL; Reduction of total cholesterol levels (apo e−/− mice; hypercholesterolemic apo e−/− mice): 41%; Histopathologic examination of tissues (C57B⅙ mice [1]; [4]): did not reveal any drug related toxic lesions; Liver enzymes (ALT, ALP, LDH) and BUN/Creatinine (C57B⅙ mice [1]; [4]): remained within normal limits; Clinical or laboratory signs of toxicity (C57B⅙ mice [1]; C57B⅙ mice, indicated dose levels (1.6-16 mg/kg/day)): not associated with any obvious clinical or laboratory signs of toxicity; ALP (C57B⅙ mice [1]; treated C57B1/6 mice, 1 week): 101 ± 3 IU/L; BUN (C57B⅙ mice [1]; treated C57B1/6 mice, 1 week): 25.4 ± 2.0 mg/dL; Glucose (C57B⅙ mice [1]; treated C57B1/6 mice, 1 week): 201 ± 18 mg/dL; LD-L (C57B⅙ mice [1]; treated C57B1/6 mice, 1 week): 1402 ± 144 IU/L; Net weight change (C57B⅙ mice [1]; treated C57B1/6 mice, 1 week): -0.26 ± 0.22 g; ALP (C57B⅙ mice [1]; treated C57B1/6 mice, 2 weeks): 94 ± 10 IU/L; ALT (C57B⅙ mice [1]; treated C57B1/6 mice, 2 weeks): 148 ± 54 IU/L; LD-L (C57B⅙ mice [1]; treated C57B1/6 mice, 2 weeks): 459 ± 83 IU/L; Net weight change (C57B⅙ mice [1]; treated C57B1/6 mice, 2 weeks): 1.88 ± 0.42 g; Plasma TG level (C57B⅙ mice [2]; 6 hours after returning food to 36 hours fasted mice): 155 ± 32 mg/dL; Postprandial triglyceride accumulation (C57B⅙ mice [2]; C57B⅙ mice, fasted 36 hours, versus vehicle, 40 mg/kg/day): much reduced postprandial triglyceride accumulation; also recorded: Postprandial accumulation was inhibited; Accumulation of VLDL-TG after Triton WR1339 treatment (C57B⅙ mice [3]; C57B⅙ mice, 40 mg/kg, versus vehicle): significantly less accumulation of VLDL-TG than vehicle-treated control mice; Triglyceride, Pre-Triton WR 1339 (C57B⅙ mice [3]; apo e+/+ (C57B1/6), 40 mg/kg i.p. 7 days, 36 hour fast): 124 ± 12 (n = 5) mg/dL; Triglyceride, Post-Triton WR 1339 (C57B⅙ mice [3]; apo e+/+ (C57B1/6), 40 mg/kg i.p. 7 days, 36 hour fast, 4 hours after Triton WR1339): 1031 ± 95 (n = 8) mg/dL
